Values belong to the compound of their own block, whether it stands above or below them.
Tests used:
in vitro [1] = details: human, liver microsomes
in vitro [2] = details: rat, hepatocytes
in vitro [3] = details: rat, liver microsomes
in vitro [4] = details: human, hepatocytes
in vivo [5] = details: Sprague-Dawley, rat, po, 50 mg/kg
in vivo [6] = details: Sprague-Dawley, rat, iv, 5 mg/kg
[7] = Half life in Beagle dog at 50 mg/kg/day, po by LC/MS analysis; assay type: ADME, organism-based, Canis lupus familiaris; details: in vivo
in vivo [8] = details: cynomolgus monkey, po, 25 mg/kg
in vivo [9] = details: Sprague-Dawley, rat, po, 50 mg/kg; remark: listed apart in the source
[10] = Half life in overnight fasted cynomolgus monkey at 25 mg/kg/day, po by LC/MS analysis; assay type: ADME, organism-based, Macaca fascicularis; details: in vivo
in vivo [11] = details: cynomolgus monkey, po, 25 mg/kg; remark: listed apart in the source
in vivo [12] = details: Sprague-Dawley, rat, iv, 5 mg/kg; remark: listed apart in the source
in vivo [13] = details: beagle, dog, po, 50 mg/kg
in vivo [14] = details: Sprague-Dawley, rat, po, 50 mg/kg; remark: listed apart in the source
in vivo [15] = details: Sprague-Dawley, rat, po, 50 mg/kg; remark: listed apart in the source
in vivo [16] = details: cynomolgus monkey, iv, 5 mg/kg
[17] = Half life in human plasma at 30 to 60 mg; assay type: ADME, cell-free
in vivo [18] = details: beagle, dog, iv, 5 mg/kg
in vivo [19] = details: beagle, dog, iv, 5 mg/kg; remark: listed apart in the source
[20] = Half life in overnight fasted cynomolgus monkey at 5 mg/kg/day, iv by LC/MS analysis; assay type: ADME, organism-based, Macaca fascicularis; details: in vivo
in vivo [21] = details: Sprague-Dawley, rat, iv, 5 mg/kg; remark: listed apart in the source
in vivo [22] = details: beagle, dog, iv, 5 mg/kg; remark: listed apart in the source
in vivo [23] = details: cynomolgus monkey, po, 25 mg/kg; remark: listed apart in the source
[24] = Terminal half life in patient plasma with advanced solid tumor administered at 75 mg; assay type: ADME; details: human, read-out: beta t1/2 (converted)

half-life at 5 µM (in vitro [1]): > 0.667 h
half-life at 1 µM (in vitro [2]): 1.68 h
half-life at 5 µM (in vitro [3]): > 0.667 h
half-life at 1 µM (in vitro [4]): 3.75 h
SMILES: COc1cc2ncnc(Nc3ccc(F)c(Cl)c3)c2cc1OCCCN1CCOCC1 [GEFITINIB]

bioavailability at 144 h (in vivo [5]): 80%
Vd at 144 h (in vivo [6]): 34.2 L/kg
half-life [7]: 20.9 h
bioavailability at 144 h (in vivo [8]): 56%
Cmax at 144 h (in vivo [9]): 630 ng/mL
half-life [10]: 12.1 h
half-life at 5 µM (in vitro [1]): > 0.667 h
AUC at 144 h (in vivo [11]): 5400 ng·h/mL
AUC at 144 h (in vivo [12]): 2100 ng·h/mL
AUC at 144 h (in vivo [13]): 25200 ng·h/mL
half-life (in vivo [14]): 19.4 h
AUC at 144 h (in vivo [15]): 20500 ng·h/mL
clearance at 144 h (in vivo [16]): 44.1 mL/min/kg
half-life [17]: 59 h
half-life (in vivo [18]): 15.9 h
clearance at 144 h (in vivo [19]): 24.4 mL/min/kg
half-life at 1 µM (in vitro [2]): 2.38 h
half-life [20]: 5.7 h
half-life at 5 µM (in vitro [3]): > 0.667 h
half-life (in vivo [21]): 9.8 h
Vd at 144 h (in vivo [22]): 28 L/kg
Cmax at 144 h (in vivo [23]): 220 ng/mL
half-life at 1 µM (in vitro [4]): 4.15 h
SMILES: COc1cc2ncnc(Nc3ccc(F)c(Cl)c3)c2cc1NC(=O)/C=C/CN1CCCCC1 [DACOMITINIB ANHYDROUS]

half-life [24]: 21.7 h
SMILES: CCOc1cc2ncc(C#N)c(Nc3ccc(F)c(Cl)c3)c2cc1NC(=O)/C=C/CN(C)C [PELITINIB]

From ChEMBL document CHEMBL3853319, “Tyrosine Kinase Inhibitors. 20. Optimization of Substituted Quinazoline and Pyrido[3,4-d]pyrimidine Derivatives as Orally Active, Irreversible Inhibitors of the Epidermal Growth Factor Receptor Family” (J Med Chem, 2016)
